{"source": "patent EP0564466B1", "about": "“LHRH-ANTAGONISTS” (ASTA Medica Aktiengesellschaft, priority 1990, dated 1992)", "key": {"rat mast cell [1]": {"tested_on": "rat mast cell", "assay": "Histamine releasing test (HRT) in vitro", "type": "cell-based, SD rats", "conditions": "in vitro histamine release from rat peritoneal mast cells, 15 min at 37 °C", "protocol": "The healthy, adult, male SD rats (BW 200-250 g) housing in the above same conditions are used in this experiment. After anesthetized by CO2 the peritoneal cavity is washed with 50 ml of PIPES AC medium containing 20 units of heparin. Following centrifugation at 200xg for 8 min at 4 °C, cells are washed again and finally resuspended to a concentration of 8 to 24x10^5 total leucocyted/ml in PIPAS AC. This suspension contains approximately 5-10 % mast cells. Washed cells are used immediately after collection and are prewarmed for 5 min at 37 °C prior to pipetting 0,3 ml aliquots into polystyrene tubes containing 0,3 ml of diluted peptide. The mixtures are incubated for 15 min at 37 °C and the reaction stopped by centrifugation at 400 xg for 15 min at 4 °C. The supernatans are assayed for histamine content by manual fluorometric assay method after successively extraction with n-butanol and n-heptane. The histamine content can be obtained from the histamine standard curve (see below). The percentage of histamine release can be calculted from the following equation: Histamine release(%)=(E-B)/(C-B)X 100 % [formula] where E is the fluorometric reading of experimental sample, B is the fluorometric reading of samples with cells and buffer only, and C ist the fluorometric reading of \"complete\" (cells treated with HCIO4).\nThe standard curve can be obtained by plotting the OD values on a fluorometer at 350 nm/450 nm (activation/fluorescent) against the concentrations of serially diluted solution of accurately weighted histamine hydrochloride. The relative parameter r of the histamine standard curve can be 0.9998, and the lowest detectable concentration of histamine is 0,5 ng/ml.\nThe ED50 value of peptide can be gotten from the dose response curves obtained by plotting the histamine release versus the peptide concentration on semilogarithmic paper.\nAll peptide samples should be tested with mast cells from a minimum of 3 different rats."}, "rat ovulation": {"tested_on": "rat ovulation", "assay": "Corbin's rat antiovulation method (antiovulatory activity, AOA)", "type": "in vivo, SD rats", "conditions": "for % AOA/µg 0.25: 0.25 µg; for % AOA/µg 0.25 / % AOA/µg 0.5 / % AOA/µg 1.0: in saline, given at noon of proestrus, female SD rats; for % AOA/µg 0.5: 0.5 µg; for % AOA/µg 1.0: 1.0 µg", "protocol": "Corbin's rat antiovulatlon method is used. The healthy, adult, female SD rats (BW 200-250 g) are used in this experiment. All animals are maintained at 22-24 °C and on 14 h/10 h (light/dark) schedule. They are given standard food, and water ad libitum. The rats showing at least two consecutive 4-day estrous cycles in vaginal smear examination can be used in this experiment. […] The rats are sacrificed next day, their oviduct of two sides are examed under a dissecting microscope to determine the ovum number. The rats were divided into several groups according to the dosing, each group consists of about 10 rats, and the control group in which the rats are given equal amount of saline consists of 9-10 rats. The antiovulatory activity (AOA) is shown in the following equation: AOA=(number of unovulated rats)/(Total number of treated rats)X 100 % [formula]"}, "rat mast cell [2]": {"tested_on": "rat mast cell", "conditions": "neuropeptide substance P; cited from earlier work"}}, "note": "Non-standard residues stand in square brackets, D forms with d. Residues, ends and D or L forms follow the SMILES beside them. dPhe(4-Cl) = N[C@H](Cc1ccc(Cl)cc1)C(=O)O; d2Nal = N[C@H](Cc1ccc2ccccc2c1)C(=O)O; d3Pal = N[C@H](Cc1cccnc1)C(=O)O"}
{"molecule": "CC(=O)N[C@H](Cc1ccc2ccccc2c1)C(=O)N[C@H](Cc1ccc(Cl)cc1)C(=O)N[C@H](Cc1cccnc1)C(=O)N[C@@H](CO)C(=O)N[C@@H](CCCNC(=N)N)C(=O)N[C@H](Cc1cccnc1)C(=O)N[C@@H](CC(C)C)C(=O)N[C@@H](CCCNC(=N)N)C(=O)N1CCC[C@H]1C(=O)N[C@H](C)C(N)=O", "note": "[compound 1, [NAc-D2Nal^1, DpClphe^2, D3Pal^3, Ser^4, Arg^5, D3Pal^6, Leu^7, Arg^8, Pro^9, DAla^10]NH2] (Ac-[d2Nal][dPhe(4-Cl)][d3Pal]SR[d3Pal]LRP[dA]-NH2)", "values": [{"measurement": "HRA (µg/ml) ED50 ± SEM", "setting": "rat mast cell [1]", "result": "3.5 ± 0.38", "unit": "µg/mL"}, {"measurement": "HRA (µg/ml) ED50 ± SEM", "setting": "rat mast cell [1]; listed as IV", "result": "3,5 µg/ml"}, {"measurement": "AOA", "setting": "rat ovulation; 0,5 µg, corn oil", "result": 100, "unit": "%"}, {"measurement": "AOA", "setting": "rat ovulation; 0,12 µg, corn oil", "result": 60, "unit": "%"}, {"measurement": "AOA", "setting": "rat ovulation; 0,25 µg, corn oil", "result": 85, "unit": "%"}, {"measurement": "% AOA/µg 0.25", "setting": "rat ovulation", "result": 50, "unit": "%"}, {"measurement": "% AOA/µg 0.5", "setting": "rat ovulation", "result": 75, "unit": "%"}, {"measurement": "% AOA/µg 1.0", "setting": "rat ovulation", "result": 100, "unit": "%"}, {"measurement": "ED50 for AOA", "setting": "rat ovulation; corn oil", "result": "≤ 0,125 µg"}]}
{"molecule": "CC(=O)N[C@H](Cc1ccc2ccccc2c1)C(=O)N[C@H](Cc1ccc(Cl)cc1)C(=O)N[C@H](Cc1ccccc1)C(=O)N[C@@H](CO)C(=O)N[C@@H](CCCNC(=N)N)C(=O)N[C@H](Cc1cccnc1)C(=O)N[C@@H](CC(C)C)C(=O)N[C@@H](CCCNC(=N)N)C(=O)N1CCC[C@H]1C(=O)N[C@H](C)C(N)=O", "note": "[compound 2, [NAc-D2Nal^1, DpClPhe^2, DPhe^3, Ser^4, Arg^5, D3Pal^6, Leu^7, Arg^8, Pro^9, DAla^10]NH2] (Ac-[d2Nal][dPhe(4-Cl)][dF]SR[d3Pal]LRP[dA]-NH2)", "values": [{"measurement": "HRA (µg/ml) ED50 ± SEM", "setting": "rat mast cell [1]", "result": "7.4 ± 0.98", "unit": "µg/mL"}, {"measurement": "% AOA/µg 0.25", "setting": "rat ovulation", "result": 29, "unit": "%"}, {"measurement": "% AOA/µg 0.5", "setting": "rat ovulation", "result": 60, "unit": "%"}, {"measurement": "% AOA/µg 1.0", "setting": "rat ovulation", "result": 100, "unit": "%"}]}
{"molecule": "[Arg^1, Pro^2, Lys^3, Pro^4, Gln^5, Gln^6 Phe^7, Phe^8, Gly^9, Leu^10, Met^11]NH2 [substance P]", "values": [{"measurement": "ED50 for HRA", "setting": "rat mast cell [2]", "result": "5 to 15", "unit": "µM"}]}
{"molecule": "[NAc-D2Nal^1, DpClPhe^2, D3Pal^3 Ser4, Tyr5, D3Pal6, Leu7, Arg8, Pro9, DAla10]NH2 [III]", "values": [{"measurement": "HRA (µg/ml) ED50 ± SEM", "setting": "rat mast cell [1]", "result": 9.8, "unit": "µg/mL"}, {"measurement": "AOA", "setting": "rat ovulation; 1 µg, corn oil", "result": 83, "unit": "%"}, {"measurement": "AOA", "setting": "rat ovulation; 3 µg, corn oil", "result": 100, "unit": "%"}]}
{"molecule": "[NAc-D2Nal^1, DpClPhe^2, D3Pal^3, Ser^4, Tyr^5, DArg^6, Leu^7, Arg^8, Pro^9, DAla^10]NH2 [II, reference compound]", "values": [{"measurement": "AOA", "setting": "rat ovulation; 0,5 µg, corn oil", "result": 100, "unit": "%"}, {"measurement": "AOA", "setting": "rat ovulation; 0,25 µg, corn oil", "result": 57, "unit": "%"}]}
{"molecule": "[NAc-D2Nal^1, DpClPhe^2, DPhe^3, Ser^4, Tyr^5, D3Pal^6, Leu^7, Arg^8, Pro^9, DAla^10]NH2 [V']", "values": [{"measurement": "HRA (µg/ml) ED50 ± SEM", "setting": "rat mast cell [1]", "result": "7,4 µg/ml"}, {"measurement": "% AOA/µg 1.0", "setting": "rat ovulation", "result": 100, "unit": "%"}]}
{"molecule": "[NAc-D2Nal^1, DpClphe^2, D3Pal^3, Ser^4, Mop^5, D3Pal^6, Leu^7, Arg^8, Pro^9, DAla^10]-NH2 [compound 13]", "values": [{"measurement": "HRA (µg/ml) ED50 ± SEM", "setting": "rat mast cell [1]", "result": "14.7 ± 2.70", "unit": "µg/mL"}, {"measurement": "HRA (µg/ml) ED50 ± SEM", "setting": "rat mast cell [1]; listed as VII", "result": "14,7 µg/ml"}, {"measurement": "% AOA/µg 0.5", "setting": "rat ovulation", "result": 25, "unit": "%"}, {"measurement": "% AOA/µg 1.0", "setting": "rat ovulation", "result": 100, "unit": "%"}]}
